Assay results from patent publication US11566007B2, “Ras inhibitors” (Revolution Medicines, Inc., priority 2019, dated 2023).
Values joined by “and” are separate entries in the source; they are usually repeats but may differ in a detail not shown here. Equal entries are not always repeated. Where two headings read alike, the source gives them in different places.

What was measured:
KRAS G12S = KRAS G12S (Homo sapiens (Human), UniProt P01116+P62937, G12S); assay: Ras-Raf (BRAF RBD) disruption / FRET / MOA assay, KRAS G12S; format: biochemical; conditions: Ras-Raf disruption/FRET/MOA assay; class symbols; read-out: KRAS G12S FRET data IC50
Outline: (§1)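 A 10-point, 3-fold dilution series topping at 30 μM final was incubated 3 h at 25° C with the Ras/cyclophilin A/BRAF RBD mixture.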

KRAS G12D = KRAS G12D (Homo sapiens (Human), UniProt P01116+P62937, G12D); assay: Ras-Raf (BRAF RBD) disruption / FRET / MOA assay, KRAS G12D; format: biochemical; conditions: Ras-Raf disruption/FRET/MOA assay; class symbols; read-out: KRAS G12D FRET data IC50
Outline: as §1

KRAS G12V = KRAS G12V (Homo sapiens (Human), UniProt P01116+P62937, G12V); assay: Ras-Raf (BRAF RBD) disruption / FRET / MOA assay, KRAS G12V; format: biochemical; conditions: read-out: IC50* KRAS G12V FRET data
Outline: as §1

NRAS Q61K = NRAS Q61K (Homo sapiens (Human), UniProt P01111+P62937, Q61K); assay: Ras-Raf (BRAF RBD) disruption / FRET / MOA assay, NRAS Q61K; format: biochemical; conditions: NRAS Q61K; Ras-Raf disruption/FRET/MOA assay; read-out: IC50* NRAS Q61K FRET data
Outline: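 Compounds (30 μM top final, 10-point 3-fold dilutions) incubated 3 h at 25° C with nucleotide-loaded Ras, cyclophilin A and BRAF RBD. Detection with 10 nM anti-His Eu-W1024 and 50 nM anti-GST allophycocyanin over another 1.5 h. Lowered TR-FRET ratio relative to DMSO wells gives IC50.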

NCI-H358 (K-Ras G12C) = assay: CellTiter-Glo cell viability assay, NCI-H358; format: cell-based, human; conditions: NCI-H358, 5-day treatment, class symbols, read-out: Additional H358 Cell Viability assay data (K-Ras G12C, IC50)
Outline: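 Compounds were dispensed directly onto K-Ras mutant cells and incubated until day 5, then plates were equilibrated to room temperature for about 30 minutes before CellTiter-Glo luminescence. Signals were normalized as (sample/average DMSO)*100 and fitted by four-parameter logistic fit.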

KRAS WT = KRAS WT (Homo sapiens (Human), UniProt P01116+P62937); assay: Ras-Raf (BRAF RBD) disruption / FRET / MOA assay, KRAS WT; format: biochemical; conditions: read-out: IC50* KRAS WT FRET data
Outline: as §1

KRAS G13D = KRAS G13D (Homo sapiens (Human), UniProt P01116+P62937, G13D); assay: Ras-Raf (BRAF RBD) disruption / FRET / MOA assay, KRAS G13D; format: biochemical; conditions: read-out: IC50* KRAS G13D FRET data
Outline: as §1

NRAS G12C = NRAS G12C (Homo sapiens (Human), UniProt P01111+P62937, G12C); assay: Ras-Raf (BRAF RBD) disruption / FRET / MOA assay, NRAS G12C; format: biochemical; conditions: read-out: IC50* NRAS G12C FRET data
Outline: as §1

Sequence of NRAS G12C (P01111 whole entry G12C): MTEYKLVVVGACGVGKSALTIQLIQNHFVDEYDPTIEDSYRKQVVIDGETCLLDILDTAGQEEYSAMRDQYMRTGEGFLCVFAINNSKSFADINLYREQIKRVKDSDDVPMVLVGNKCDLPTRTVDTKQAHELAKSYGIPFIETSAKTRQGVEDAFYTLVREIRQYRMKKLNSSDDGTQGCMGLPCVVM
Sequence of NRAS G12C (P62937 whole entry): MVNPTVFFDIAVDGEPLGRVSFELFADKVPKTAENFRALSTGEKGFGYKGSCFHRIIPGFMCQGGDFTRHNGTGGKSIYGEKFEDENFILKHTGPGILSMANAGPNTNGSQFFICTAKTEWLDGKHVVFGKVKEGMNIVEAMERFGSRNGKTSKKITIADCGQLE
Sequence of KRAS G12V (P01116-2 other isoform, or with tags, fused parts or gaps G12V): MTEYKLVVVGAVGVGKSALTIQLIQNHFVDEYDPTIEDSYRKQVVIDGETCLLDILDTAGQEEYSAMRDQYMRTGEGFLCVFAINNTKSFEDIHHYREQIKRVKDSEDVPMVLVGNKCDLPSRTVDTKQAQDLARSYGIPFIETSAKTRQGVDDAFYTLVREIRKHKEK
Sequence of KRAS G12V (P62937 whole entry): as the sequence (P62937 whole entry) above
Sequence of KRAS G13D (P01116-2 other isoform, or with tags, fused parts or gaps G13D): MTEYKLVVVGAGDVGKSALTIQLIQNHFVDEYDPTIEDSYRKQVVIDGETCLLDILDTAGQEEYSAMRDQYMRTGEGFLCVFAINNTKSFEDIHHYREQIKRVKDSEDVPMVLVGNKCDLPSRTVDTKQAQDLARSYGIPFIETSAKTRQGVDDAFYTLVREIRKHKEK
Sequence of KRAS G13D (P62937 whole entry): as the sequence (P62937 whole entry) above
Sequence of NRAS Q61K (P01111 whole entry Q61K): as the sequence (P01111 whole entry G12C) above, with C12G, Q61K counted along it
Sequence of NRAS Q61K (P62937 whole entry): as the sequence (P62937 whole entry) above
Sequence of KRAS WT (P01116-2 other isoform, or with tags, fused parts or gaps): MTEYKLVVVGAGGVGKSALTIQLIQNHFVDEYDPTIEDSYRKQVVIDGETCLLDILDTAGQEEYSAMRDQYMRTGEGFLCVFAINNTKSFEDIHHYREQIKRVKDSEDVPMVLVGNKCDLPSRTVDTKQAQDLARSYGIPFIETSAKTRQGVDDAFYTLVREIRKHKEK
Sequence of KRAS WT (P62937 whole entry): as the sequence (P62937 whole entry) above
Sequence of KRAS G12S (P01116-2 other isoform, or with tags, fused parts or gaps G12S): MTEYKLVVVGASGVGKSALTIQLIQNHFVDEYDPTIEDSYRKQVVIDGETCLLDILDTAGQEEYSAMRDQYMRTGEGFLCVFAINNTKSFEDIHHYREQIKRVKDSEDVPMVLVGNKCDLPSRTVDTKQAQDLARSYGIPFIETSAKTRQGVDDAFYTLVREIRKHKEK
Sequence of KRAS G12S (P62937 whole entry): as the sequence (P62937 whole entry) above
Sequence of KRAS G12D (P01116-2 other isoform, or with tags, fused parts or gaps G12D): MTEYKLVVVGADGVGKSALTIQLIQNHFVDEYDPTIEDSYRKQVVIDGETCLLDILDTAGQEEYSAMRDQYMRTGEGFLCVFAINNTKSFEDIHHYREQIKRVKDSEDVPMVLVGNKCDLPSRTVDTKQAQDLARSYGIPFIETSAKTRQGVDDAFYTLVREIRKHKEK
Sequence of KRAS G12D (P62937 whole entry): as the sequence (P62937 whole entry) above

Row | SMILES | IC50 (KRAS G12S) | IC50 (KRAS G12D) | IC50 (KRAS G12V) | IC50 (NRAS Q61K) | IC50 (NCI-H358 (K-Ras G12C); Homo sapiens, NCI-H358, 120 h) | IC50 (KRAS WT) | IC50 (KRAS G13D) | IC50 (NRAS G12C) | IC50 (NCI-H358 (K-Ras G12C))
1 | C=CC(=O)N1CC[C@H](C(=O)N(C)[C@H](C(=O)N[C@H]2Cc3cc(O)cc(c3)-c3ccc4c(c3)c(c(-c3cccnc3[C@H](CC)OC)n4CC)CC(C)(C)COC(=O)[C@@H]3CCCN(N3)C2=O)C(C)C)C1 (atropisomer, axis not shown) [Example A181] | 1000 to 10000 nM and 10 to 100 nM | 1000 to 10000 nM and > 10000 nM | 100 to 1000 nM and 1000 to 10000 nM | 100 to 1000 nM | 10 to 100 nM | 100 to 1000 nM and 1000 to 10000 nM | 100 to 1000 nM and 1000 to 10000 nM | 10 to 100 nM and 100 to 1000 nM | 
2 | C=CC(=O)N1CC[C@H](C(=O)N(C)[C@H](C(=O)N[C@H]2Cc3nc(ns3)-c3ccc4c(c3)c(c(-c3cccnc3[C@H](C)OC)n4CC)CC(C)(C)COC(=O)[C@@H]3CCCN(N3)C2=O)C(C)C)C1 (atropisomer, axis not shown) [Example A202] | 1000 to 10000 nM | > 10000 nM | > 10000 nM | 1000 to 10000 nM | 10 to 100 nM | > 10000 nM | > 10000 nM | 1000 to 10000 nM | 
3 | C=CC(=O)N1CC[C@H](C(=O)N(C)[C@H](C(=O)N[C@H]2Cc3cc(O)cc(c3)-c3ccc4c(c3)c(c(-c3cccnc3[C@@H](OC)C3CC3)n4CC)CC(C)(C)COC(=O)[C@@H]3CCCN(N3)C2=O)C(C)C)C1 (atropisomer, axis not shown) [Example A207] | 100 to 1000 nM | 1000 to 10000 nM |  | 100 to 1000 nM |  | 100 to 1000 nM | 100 to 1000 nM | 10 to 100 nM | 10 to 100 nM
4 | C=CC(=O)N1CC[C@H](C(=O)N(C)[C@H](C(=O)N[C@H]2Cc3cc(O)cc(c3)-c3ccc4c(c3)c(c(-c3cccnc3[C@@H]3CCCO3)n4CC)CC(C)(C)COC(=O)[C@@H]3CCCN(N3)C2=O)C(C)C)C1 (atropisomer, axis not shown) [Example A281] | 100 to 1000 nM | 1000 to 10000 nM | 100 to 1000 nM | 100 to 1000 nM | 10 to 100 nM | 100 to 1000 nM | 100 to 1000 nM | 10 to 100 nM and 100 to 1000 nM | 
5 | C=CC(=O)N1CC[C@H](C(=O)N(C)[C@H](C(=O)N[C@H]2Cc3nc(n(C)n3)-c3ccc4c(c3)c(c(-c3cccnc3[C@H](C)OC)n4CC)CC(C)(C)COC(=O)[C@@H]3CCCN(N3)C2=O)C(C)C)C1 (atropisomer, axis not shown) [Example A314] | 1000 to 10000 nM | 1000 to 10000 nM | 1000 to 10000 nM | 100 to 1000 nM | 100 to 1000 nM | 1000 to 10000 nM | 1000 to 10000 nM | 100 to 1000 nM | 
6 | C=CC(=O)N1CC[C@H](C(=O)N(C)[C@H](C(=O)N[C@H]2Cc3csc(n3)-c3ccc4c(c3)c(c(-c3cccnc3[C@H](C)OC)n4CC)CC(C)(C)COC(=O)[C@@H]3CCCN(N3)C2=O)C(C)C)C1 (atropisomer, axis not shown) [Example A330] | 1000 to 10000 nM | 1000 to 10000 nM | 1000 to 10000 nM | 100 to 1000 nM | 10 to 100 nM | 1000 to 10000 nM | 1000 to 10000 nM | 100 to 1000 nM | 
7 | C=CC(=O)N1CC[C@]2(C1)CN(C(=O)N(C)[C@H](C(=O)N[C@H]1Cc3nc(cs3)-c3ccc4c(c3)c(c(-c3cccnc3[C@H](C)OC)n4CC)CC(C)(C)COC(=O)[C@@H]3CCCN(N3)C1=O)C(C)C)CCO2 (atropisomer, axis not shown) [Example A354] | 100 to 1000 nM | 100 to 1000 nM | 100 to 1000 nM | 10 to 100 nM | 10 to 100 nM | 100 to 1000 nM | 100 to 1000 nM | 10 to 100 nM | 
8 | C=CC(=O)N1CC[C@@]2(C1)OCN([C@H](C(=O)N[C@H]1Cc3cccc(c3)-c3ccc4c(c3)c(c(-c3cccnc3[C@H](C)OC)n4CC)CC(C)(C)COC(=O)[C@@H]3CCCN(N3)C1=O)C(C)C)C2=O (atropisomer, axis not shown) [Example A358] | 1000 to 10000 nM | 1000 to 10000 nM | 1000 to 10000 nM | 1000 to 10000 nM | 10 to 100 nM | 100 to 1000 nM | 1000 to 10000 nM | 100 to 1000 nM | 
9 | CO[C@@H](C)c1ncccc1-c1c2c3cc(ccc3n1CC(F)(F)F)-c1csc(n1)C[C@H](NC(=O)CCOC1CN(C(=O)C#CC(C)(C)N3CCC3)C1)C(=O)N1CCC[C@H](N1)C(=O)OCC(C)(C)C2 (atropisomer, axis not shown) [Example A363] | 1000 to 10000 nM | > 10000 nM | 1000 to 10000 nM | 1000 to 10000 nM | 10 to 100 nM | 1000 to 10000 nM | 1000 to 10000 nM | 10 to 100 nM | 
10 | C=CC(=O)N(C)C[C@H]1CCN1C(=O)N(C)[C@H](C(=O)N[C@H]1Cc2nc(cs2)-c2ccc3c(c2)c(c(-c2cccnc2[C@H](C)OC)n3CC)CC(C)(C)COC(=O)[C@@H]2CCCN(N2)C1=O)C(C)C (atropisomer, axis not shown) [Example A369] | 100 to 1000 nM | 1000 to 10000 nM | 100 to 1000 nM | 10 to 100 nM | 10 to 100 nM | 100 to 1000 nM | 1000 to 10000 nM | 100 to 1000 nM | 
11 | C=CC(=O)N1CC[C@H](C(=O)N(C)[C@H](C(=O)N[C@H]2Cc3cccc(c3)-c3ccc4c(c3)c(c(-c3cccnc3[C@H](C)OC)n4CC)CC(C)(C)COC(=O)[C@@H]3CCCN(N3)C2=O)C(C)C)[C@H]1C (atropisomer, axis not shown) [Example A373] | 1000 to 10000 nM | 1000 to 10000 nM | 100 to 1000 nM | 1000 to 10000 nM | 10 to 100 nM | 1000 to 10000 nM | 1000 to 10000 nM | 100 to 1000 nM | 
12 | CO[C@@H](C)c1ncccc1-c1c2c3cc(ccc3n1CC(F)(F)F)-c1cc(cc(C(F)F)c1)C[C@H](NC(=O)[C@@H](COC1CN(C(=O)C#CC(C)(C)N(C)C)C1)C(C)C)C(=O)N1CCC[C@H](N1)C(=O)OCC(C)(C)C2 (atropisomer, axis not shown) [Example A374] | > 10000 nM | > 10000 nM | > 10000 nM | > 10000 nM | 10 to 100 nM | > 10000 nM | > 10000 nM | 100 to 1000 nM | 
13 | CCn1c(-c2cccnc2[C@H](C)OC)c2c3cc(ccc31)-c1csc(n1)C[C@H](NC(=O)CCO[C@H]1CCN(C(=O)C#CC(C)(C)N3CCC3)C1)C(=O)N1CCC[C@H](N1)C(=O)OCC(C)(C)C2 (atropisomer, axis not shown) [Example A381] | 1000 to 10000 nM | 1000 to 10000 nM | 1000 to 10000 nM | 1000 to 10000 nM | 10 to 100 nM | 1000 to 10000 nM | 1000 to 10000 nM | 10 to 100 nM | 
14 | C=CC(=O)N(C)C[C@@H]1CCN1C(=O)N(C)[C@H](C(=O)N[C@H]1Cc2nc(cs2)-c2ccc3c(c2)c(c(-c2cccnc2[C@H](C)OC)n3CC)CC(C)(C)COC(=O)[C@@H]2CCCN(N2)C1=O)C(C)C (atropisomer, axis not shown) [Example A390] | 1000 to 10000 nM | 1000 to 10000 nM | 1000 to 10000 nM | 100 to 1000 nM | 100 to 1000 nM | 1000 to 10000 nM | 1000 to 10000 nM | 100 to 1000 nM | 
15 | C=CC(=O)N1CC[C@H](C(=O)N(C)[C@H](C(=O)N[C@H]2Cc3cccc(c3)-c3ccc4c(c3)c(c(-c3cc(C5CN(C)C5)cnc3[C@H](C)OC)n4CC)CC(C)(C)COC(=O)[C@@H]3CCCN(N3)C2=O)C(C)C)C1 (atropisomer, axis not shown) [Example A392] | 1000 to 10000 nM | > 10000 nM | 1000 to 10000 nM | > 10000 nM | 10 to 100 nM | 1000 to 10000 nM | > 10000 nM | 100 to 1000 nM | 
